# In patent US12570642B2, “GLP-IR modulating compounds” (Gilead Sciences, Inc., priority 2021, dated 2026):
# Target: GLP-1R (Homo sapiens, UniProt P43220)
# Experiment: GLP-1R Activation - cAMP Assay
# Format: cell-based
# Conditions: each compound run on one of the two cAMP assays (Assay 1 or Assay 2, not specified)
# Summary of the method: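 CHO cells stably expressing GLP-1R, plated at 1,000 cells/well overnight, then equilibrated 1 h in HBSS with 20 mM Hepes and 0.1% BSA. Agonist added as 10-point dose response for 30 min at 37 °C. cAMP measured by HTRF (Cisbio Gs Dynamic kit); EC50 from sigmoidal fit.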
# [1] = cAMP increase in CHO cells stably expressing GLP-1R
# Sequence of GLP-1R (P43220 24-463): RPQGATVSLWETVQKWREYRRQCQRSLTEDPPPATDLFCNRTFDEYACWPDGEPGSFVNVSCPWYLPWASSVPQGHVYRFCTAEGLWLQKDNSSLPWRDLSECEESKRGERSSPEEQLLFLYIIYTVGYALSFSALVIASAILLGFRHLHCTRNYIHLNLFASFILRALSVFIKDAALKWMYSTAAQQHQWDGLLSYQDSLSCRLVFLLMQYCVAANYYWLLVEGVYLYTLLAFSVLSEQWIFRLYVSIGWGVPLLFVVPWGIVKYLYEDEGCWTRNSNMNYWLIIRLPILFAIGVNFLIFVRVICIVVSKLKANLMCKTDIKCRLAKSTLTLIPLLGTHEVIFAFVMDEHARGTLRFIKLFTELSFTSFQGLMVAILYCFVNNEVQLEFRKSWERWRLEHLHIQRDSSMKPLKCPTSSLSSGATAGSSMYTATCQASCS
Compound,EC50 [1] [nM],EC50 ([…]) [nM]
"CC1(C)COC[C@H]1n1c(Cc2c(F)cc(-c3ccc(Cl)c(OCc4ccc(C#N)cc4F)n3)c(F)c2F)nc2ccc(C(=O)O)cc21 [Example 416, (S)-2-(4-(5-chloro-6-((4-cyano-2-fluorobenzyl)oxy)pyridin-2-yl)-2,3,6-trifluorobenzyl)-1-(4,4-dimethyltetrahydrofuran-3-yl)-1H-benzo[d]imidazole-6-carboxylic acid]",0.235,
"CC1(C)COCC1n1c(Cc2cc(F)c(-c3cccc(OCc4ncc(C(F)(F)F)cc4F)n3)cc2F)nc2c(F)cc(C(=O)O)cc21 (stereo not shown) [Example 264, 2-(2,5-difluoro-4-(6-((3-fluoro-5-(trifluoromethyl)pyridin-2-yl)methoxy)pyridin-2-yl)benzyl)-1-(4,4-dimethyltetrahydrofuran-3-yl)-4-fluoro-1H-benzo[d]imidazole-6-carboxylic acid]",0.155,
"CC1(C)COC[C@H]1n1c(Cc2cc(F)c(-c3ccc(F)c(OCc4ccc(C#N)cc4F)n3)cc2F)nc2c(Cl)cc(C(=O)O)cc21 [Example 127, (S)-4-chloro-2-(4-(6-((4-cyano-2-fluorobenzyl)oxy)-5-fluoropyridin-2-yl)-2,5-difluorobenzyl)-1-(4,4-dimethyltetrahydrofuran-3-yl)-1H-benzo[d]imidazole-6-carboxylic Acid]",0.353,
"Cc1cc(Cc2nc3c(F)cc(C(=O)O)cc3n2[C@@H]2COCC2(C)C)c(F)cc1-c1ccnc(OCc2ccc(C#N)cc2F)n1 [Example 265, (S)-2-(4-(2-((4-cyano-2-fluorobenzyl)oxy)pyrimidin-4-yl)-2-fluoro-5-methylbenzyl)-1-(4,4-dimethyltetrahydrofuran-3-yl)-4-fluoro-1H-benzo[d]imidazole-6-carboxylic acid]",0.171,
"Cn1ccc(COc2cccc(-c3cc(F)c(Cc4nc5ccc(C(=O)O)cc5n4[C@@H]4COCC4(C)C)cc3F)n2)cc1=O [Example 427, (S)-2-(2,5-difluoro-4-(6-((1-methyl-2-oxo-1,2-dihydropyridin-4-yl)methoxy)pyridin-2-yl)benzyl)-1-(4,4-dimethyltetrahydrofuran-3-yl)-1H-benzo[d]imidazole-6-carboxylic acid]",0.501,
"CC1(C)COC[C@H]1n1c(Cc2cc(F)c(-c3cccc(OCc4ccc(C#N)cc4F)n3)cc2F)nc2c(Cl)cc(C(=O)O)cc21 [Example 130, (S)-4-chloro-2-(4-(6-((4-cyano-2-fluorobenzyl)oxy)pyridin-2-yl)-2,5-difluorobenzyl)-1-(4,4-dimethyltetrahydrofuran-3-yl)-1H-benzo[d]imidazole-6-carboxylic Acid]",0.038,
"CC1(C)COC[C@H]1n1c(Cc2cc(F)c(-c3cccc(OCc4c(F)cc(Cl)cc4F)n3)cc2F)nc2ccc(C(=O)O)cc21 [Example 453, (S)-2-(4-(6-((4-chloro-2,6-difluorobenzyl)oxy)pyridin-2-yl)-2,5-difluorobenzyl)-1-(4,4-dimethyltetrahydrofuran-3-yl)-1H-benzo[d]imidazole-6-carboxylic acid]",0.527,
"CC1(C)COCC1n1c(Cc2cc(F)c(-c3ccnc(OCc4ccc(Cl)cc4F)n3)cc2Cl)nc2c(F)cc(C(=O)O)cc21 (stereo not shown) [Example 343, 2-(2-chloro-4-(2-((4-chloro-2-fluorobenzyl)oxy)pyrimidin-4-yl)-5-fluorobenzyl)-1-(4,4-dimethyltetrahydrofuran-3-yl)-4-fluoro-1H-benzo[d]imidazole-6-carboxylic acid]",0.113,
"O=C(O)c1ccc2nc(Cc3cc(F)c(-c4cccc(OCc5ccc(Cl)cc5F)n4)cc3F)n(C3COC4CC3C4)c2c1 (stereo in doubt) [Example 572, (R)-1-(2-oxabicyclo[3.1.1]heptan-4-yl)-2-(4-(6-((4-chloro-2-fluorobenzyl)oxy)pyridin-2-yl)-2,5-difluorobenzyl)-1H-benzo[d]imidazole-6-carboxylic acid]",0.322,
"CC1(C)COC[C@H]1n1c(Cc2cc(F)c(-c3nc(OCc4ccc(C#N)cc4F)ccc3F)cc2F)nc2c(F)cc(C(=O)O)cc21 [Example 365, (S)-2-(4-(6-((4-cyano-2-fluorobenzyl)oxy)-3-fluoropyridin-2-yl)-2,5-difluorobenzyl)-1-(4,4-dimethyltetrahydrofuran-3-yl)-4-fluoro-1H-benzo[d]imidazole-6-carboxylic acid]",0.124,
"CC1(C)COC[C@H]1n1c(Cc2cc(F)c(-c3cccc(OCc4ccc(F)cc4F)n3)cc2F)nc2ccc(C(=O)O)cc21 [Example 466, (S)-2-(4-(6-((2,4-difluorobenzyl)oxy)pyridin-2-yl)-2,5-difluorobenzyl)-1-(4,4-dimethyltetrahydrofuran-3-yl)-1H-benzo[d]imidazole-6-carboxylic acid]",0.124,
"CC1(C)COC[C@H]1n1c(Cc2ccc(-c3cccc(OCc4ccc(Cl)cc4F)n3)cc2F)nc2c(F)cc(C(=O)O)cc21 [Example 329, (S)-2-(4-(6-((4-chloro-2-fluorobenzyl)oxy)pyridin-2-yl)-2-fluorobenzyl)-1-(4,4-dimethyltetrahydrofuran-3-yl)-4-fluoro-1H-benzo[d]imidazole-6-carboxylic acid]",0.062,
COCCn1c(C(F)(F)c2cc(F)c(-c3cccc(OCc4ccc(C#N)cc4F)n3)cc2F)nc2ccc(C(=O)O)cc21 [Example 52],21.3,
"COCCn1c(Cc2cc(F)c(-c3cccc(OCc4ccc(-c5ccnn5C)nc4)n3)cc2F)nc2ccc(C(=O)O)cc21 [Example 110, 2-(2,5-difluoro-4-(6-((6-(1-methyl-1H-pyrazol-5-yl)pyridin-3-yl)methoxy)pyridin-2-yl)benzyl)-1-(2-methoxyethyl)-1H-benzo[d]imidazole-6-carboxylic Acid]",4.93,
Cn1cc(-c2cc(F)c(COc3cccc(-c4cc(F)c(Cc5nc6ccc(C(=O)O)cc6n5[C@H]5COCC5(C)C)cc4F)n3)cn2)cn1 [Example 57],2.06,
CC(=O)N1C[C@@H](F)[C@H](n2c(Cc3cc(F)c(-c4cccc(OCc5ccc(C#N)cc5F)n4)cc3F)nc3ccc(C(=O)O)cc32)C1 [Example 40],,155
"COCCn1c(Cc2cc(F)c(-c3cccc(OCc4ccc(-c5cccnc5C)cc4F)n3)cc2F)nc2ccc(C(=O)O)cc21 [Example 104, 2-(2,5-difluoro-4-(6-((2-fluoro-4-(2-methylpyridin-3-yl)benzyl)oxy)pyridin-2-yl)benzyl)-1-(2-methoxyethyl)-1H-benzo[d]imidazole-6-carboxylic Acid]",41.3,
"COCCn1c(Cc2cc(F)c(-c3cccc(OCc4cnc(Cl)cn4)n3)cc2F)nc2ccc(C(=O)O)cc21 [Example 24, 2-(4-(6-((5-chloropyrazin-2-yl)methoxy)pyridin-2-yl)-2,5-difluorobenzyl)-1-(2-methoxyethyl)-1H-benzo[d]imidazole-6-carboxylic Acid]",9.96,
"CC1(C)COC[C@H]1n1c(Cc2ccc(-c3ccc(F)c(OCc4ccc(Cl)cc4F)n3)cc2F)nc2ccc(C(=O)O)cc21 [Example 332, (S)-2-(4-(6-((4-chloro-2-fluorobenzyl)oxy)-5-fluoropyridin-2-yl)-2-fluorobenzyl)-1-(4,4-dimethyltetrahydrofuran-3-yl)-1H-benzo[d]imidazole-6-carboxylic acid]",0.159,
